pIC50: −log10 of the molar value.
Molecular target: Transient receptor potential cation channel subfamily V member 1 (Homo sapiens, UniProt Q8NER1)
Experiment: Activation Assay
Protocol: Expression plasmids encoding the hTRPV1 cDNA were transfected into HEK293 cells using Lipofectamine. Forty-eight hours after transfection, the neomycin-resistant cells were selected with growth medium containing 800 ug/mL Geneticin (Life Technologies, formerly Gibco BRL). Surviving individual colonies were isolated and screened for TRPV1 activity.

Transient receptor potential cation channel subfamily V member 1, sequence (Q8NER1 whole entry): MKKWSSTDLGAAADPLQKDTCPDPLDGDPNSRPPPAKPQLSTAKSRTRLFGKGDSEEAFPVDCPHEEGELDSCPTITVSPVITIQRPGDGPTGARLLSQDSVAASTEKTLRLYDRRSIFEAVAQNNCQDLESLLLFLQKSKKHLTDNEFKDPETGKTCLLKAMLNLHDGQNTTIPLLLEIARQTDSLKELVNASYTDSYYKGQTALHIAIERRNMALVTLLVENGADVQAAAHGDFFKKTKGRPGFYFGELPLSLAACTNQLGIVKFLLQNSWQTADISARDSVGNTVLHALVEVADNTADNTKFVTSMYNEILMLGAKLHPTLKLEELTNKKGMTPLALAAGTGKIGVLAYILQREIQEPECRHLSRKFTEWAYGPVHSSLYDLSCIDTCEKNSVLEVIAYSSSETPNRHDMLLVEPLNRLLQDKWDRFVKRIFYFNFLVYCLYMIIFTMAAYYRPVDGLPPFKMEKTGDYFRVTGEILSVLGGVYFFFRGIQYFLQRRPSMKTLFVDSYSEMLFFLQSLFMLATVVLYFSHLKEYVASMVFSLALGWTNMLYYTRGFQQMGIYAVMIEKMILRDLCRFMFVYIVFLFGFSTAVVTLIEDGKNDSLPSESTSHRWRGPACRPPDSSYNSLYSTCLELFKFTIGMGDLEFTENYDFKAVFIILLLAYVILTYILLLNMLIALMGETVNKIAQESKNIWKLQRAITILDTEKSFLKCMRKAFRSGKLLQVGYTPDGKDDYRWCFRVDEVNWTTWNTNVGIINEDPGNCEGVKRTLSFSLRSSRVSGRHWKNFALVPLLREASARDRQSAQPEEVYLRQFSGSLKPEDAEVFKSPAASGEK

## CN1C(=O)NCc2c(NC(=O)N[C@@H]3CC(C)(C(F)F)Oc4cc(Cl)ccc43)cccc21 (stereo partly specified) [US8969325, 136]
  pIC50: 7.68

From BindingDB's records for patent US8969325 (Abbvie, 2015)
